Assay results reported in patent US8207206B2, “(S,R)-3-phenyl-4,5 dihydro-5-isoxazole acetic acid-nitric oxide and use thereof as anti-cancer and antiviral agent” (OncoNOx APS, priority 2007, dated 2012).

Experiments:
B16 mouse melanoma cells = assay: MTT / CV cell viability test; type: cell-based; details: B16 cells, different concentrations, 24 h; cell number also reduced by CV
Experimental: (§1) Rat glioma cell line C6 was a kind gift from Dr. Pedro Tranque (Universidad de Castilla-La Mancha, Albacete, Spain), murine melanoma B16 cell line was a kind gift from Dr. Sinisa Radulovic (Institute for Oncology and Radiology of Serbia, Belgrade, Serbia) while mouse fibrosarcoma L929 was obtained from the European Collection of Animal Cell Cultures (Salisbury, UK). Cells were grown in HEPES-buffered RPM, 1640 medium supplemented with 5% FCS, 2 mM glutamine, 0.01% sodium pyruvate, 5×10^−5 M 2-mercaptoethanol and antibiotics (culture medium) at 37° C. in a humidified atmosphere with 5% CO2. After conventional trypsinization the cells were seeded at a concentration of 10^4 cells/well in a 96-well plate, of 2×10^5 cells/well in a 6-well plate or at 3×10^4 cells/well in a 4-well chamber slide, cultivated overnight, and then exposed to the test compound.
(§2) The cells were seeded in flat-bottom 96-well plates (10^4 cells/well) in a final volume of 200 μl of culture medium, incubated overnight, then treated with different concentrations of the test compound. After 24 h incubation, cell viability was assessed using 3-4,5-dimethylthiazol-2-yl)-2,5-diphenyltetrazolium bromide (MTT) test, based on the mitochondrial-dependent reduction of MTT to formazan, or by crystal violet (CV) staining of adherent cells, as previously described (Mijatovic et al CMLS 2004). The results are presented as % of control values obtained in untreated cultures. The rate of cell proliferation was also determined using flow cytometric analysis of cells labeled with CFSE (Kang 2005). The cells were detached, added with 1.5 μM CFSE and allowed to stand for 15 min at 37° C., then washed twice and seeded in 6-well plates at 2×10^5. The cells were treated with the compound for 24 and 48 h, trypsinized and washed twice. Finally, the cells were resuspended in PBS and analyzed by flow cytometry. Green fluorescence emission from cells illuminated with excitation light of 488 nm was measured with a FACS Calibur (BD, Heidelberg, Germany) and analyzed using the CellQuest software.

C6 rat astrocytoma cells = assay: MTT / CV cell viability test; type: cell-based; details: C6 cells, different concentrations, 24 h; cell number also reduced by CV
Experimental: as §1, §2

[1] = tested on: L929 mouse fibrosarcoma cells; assay: MTT / CV cell viability test; type: cell-based; details: L929 cells, different concentrations, 24 h; cell number also reduced by CV
Experimental: as §1, §2

C6 cells = assay: ROS measurement by DHR fluorescence (flow cytometry); type: cell-based, rat; details: C6, 25 μg/ml, 24 h
Experimental: (§3) The cells grown in the 6-well plate were stained with 1 μM dihydrorhodamine 123 (DHR) 20 min before the treatment with the test compound. At the end of the cultivation period the cells were detached, washed and resuspended in PBS. Analysis of ROS release was performed with a FACSCalibur and analyzed using CellQuest Pro software (Kaludjerovic 2005).

B16 cells = assay: as above; type: cell-based, mouse; details: B16, 25 μg/ml, 24 h
Experimental: as §3

L929 cells = assay: as above; type: cell-based, mouse; details: L929, 25 μg/ml, 24 h
Experimental: as §3

diabetes = details: NOD mice with spontaneous or accelerated diabetes, or multiple low dose streptozotocin diabetes; cited from earlier work

In the case of O=C(O)CC1CC(c2ccccc2)=NO1 (racemic) [VGX-1027, (S,R)-3-phenyl-4,5-dihydro-5-isoxasole acetic acid, reference compound], the “cell viability (MTT, mitochondrial respiration)” value (shortened to “cell viability”) (B16 mouse melanoma cells) is reported as “did not affect the viability”, the “cell viability” value (C6 rat astrocytoma cells) is reported as “did not affect the viability” and the “cell viability” value [1] is reported as “did not affect the viability”. The “intracellular production of ROS (DHR fluorescence)” value (from here on “intracellular production of ROS”) (C6 cells) was “did not release ROS”, the “intracellular production of ROS” value (B16 cells) was “did not release ROS” and the “intracellular production of ROS” value (L929 cells) was “did not release ROS”. The diabetes progress (diabetes) was “significantly reduces diabetes progress”.
